For orientation: IC50 means the concentration that inhibits the measured activity by half.

The nature of assay [1]: Inhibition of Mycobacterium tuberculosis RNA polymerase D435V mutant by rolling circle transcription assay in the absence of sigmaA factor.
Assay [2] can be described thus: Inhibition of Mycobacterium tuberculosis RNA polymerase H445Y mutant by rolling circle transcription assay in the absence of sigmaA factor.
Assay [3] can be described thus: Inhibition of Mycobacterium tuberculosis RNA polymerase S450L mutant by rolling circle transcription assay in the absence of sigmaA factor.
Assay [4] in a line: Inhibition of Mycobacterium tuberculosis RNA polymerase H445Y mutant by rolling circle transcription assay in the presence of sigmaA factor.
Assay [5] is described as follows: Inhibition of Mycobacterium tuberculosis RNA polymerase D435V mutant by rolling circle transcription assay in the presence of sigmaA factor.
The nature of assay [6]: Inhibition of Mycobacterium tuberculosis RNA polymerase S450L mutant by rolling circle transcription assay in the presence of sigmaA factor.
The subject of assay [7] is Mycobacterium tuberculosis. The assay can be described thus: Ratio of rifalazil IC50 to compound IC50 for Mycobacterium tuberculosis RNA polymerase D435V mutant in the presence of sigmaA factor.
Assay [8] deals with Mycobacterium tuberculosis. The assay can be described thus: Ratio of rifalazil IC50 to compound IC50 for Mycobacterium tuberculosis RNA polymerase S450L mutant in the presence of sigmaA factor.

In the case of `CO[C@H]1/C=C/O[C@@]2(C)Oc3c(C)c(O)c4c(O)c(c(/C=N/N5CCN(C)CC5)c(O)c4c3C2=O)NC(=O)/C(C)=C\C=C\[C@H](C)[C@H](O)[C@@H](C)[C@@H](O)[C@@H](C)[C@H](OC(C)=O)[C@@H]1C` [RIFAMPIN], the IC50 in assay [1] is 313 µM; in assay [2] it was 830 µM; in assay [3], 126 µM.
In the case of `CO[C@H]1/C=C/O[C@@]2(C)Oc3c(C)c(O)c4c(=O)c(c5oc6cccc(OCCCCN7CCN(C(=O)Cn8ccnc8)CC7)c6nc-5c4c3C2=O)NC(=O)/C(C)=C\C=C\[C@H](C)[C@H](O)[C@@H](C)[C@@H](O)[C@@H](C)[C@H](OC(C)=O)[C@@H]1C`, the IC50 was determined as 574 µM in assay [4], 13 µM in assay [5] and 122 µM in assay [6]. The Ratio IC50 in assay [7] was determined as 26.
For the molecule `CO[C@H]1/C=C/O[C@@]2(C)Oc3c(C)c(O)c4c(=O)c(c5oc6cccc(OCCCCN7CCN(CCn8ccnc8)CC7)c6nc-5c4c3C2=O)NC(=O)/C(C)=C\C=C\[C@H](C)[C@H](O)[C@@H](C)[C@@H](O)[C@@H](C)[C@H](OC(C)=O)[C@@H]1C`, the IC50 in assay [4] worked out at 437 µM; in assay [5] it was 9 µM; in assay [6], 18 µM. The Ratio IC50 in assay [8] amounted to 7; in assay [7], 26.
Taken in the same sequence, the figures for `CCN(CC)CCOc1cccc2oc3c4c(=O)c5c(O)c(C)c6c(c5c-3nc12)C(=O)[C@@](C)(O/C=C/[C@H](OC)[C@@H](C)[C@@H](OC(C)=O)[C@H](C)[C@H](O)[C@H](C)[C@@H](O)[C@@H](C)/C=C/C=C(/C)C(=O)N4)O6` were 171 µM, 20 µM, 16 µM, 7 and 26.
On to `CO[C@H]1/C=C/O[C@@]2(C)Oc3c(C)c(O)c4c(=O)c(c5oc6cc(N7CCN(CC(C)C)CC7)cc(O)c6nc-5c4c3C2=O)NC(=O)/C(C)=C\C=C\[C@H](C)[C@H](O)[C@@H](C)[C@@H](O)[C@@H](C)[C@H](OC(C)=O)[C@@H]1C` [RIFALAZIL], for which the IC50 in assay [4] came out at 172 µM; in assay [5], 541 µM; in assay [6], 117 µM.

The record behind these values is ChEMBL document CHEMBL2046330, “Structure-based design of novel benzoxazinorifamycins with potent binding affinity to wild-type and rifampin-resistant mutant Mycobacterium tuberculosis RNA polymerases” (J Med Chem, 2012).
